19 compounds from PubChem BioAssay AID743333 (Broad Institute, 2014) can be followed below.

Calls of active or inactive are those of the source.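 Rule for the calls: active = signal falls with dose and an IC50 can be fitted at or below twice the top valid tested dose; inconclusive = flat fit showing 30 to 70% loss, or poor fit; inactive = activity in the rising direction, plus the rest.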

Assay [1] can be described thus: A549 viability loss, ATP readout – cell-based, plate reader, dry powder, set 8, cytotoxicity control, dose response (AID 743333). Particulars: A549 viability, CellTiter-Glo ATP luminescence, 72 h; at 15 µM (top of the series). On the technique in general: Cellular ATP, detected with luciferase, serves as a proxy for viable cell number.
For assay [2], the system named is A549 viability, CellTiter-Glo ATP luminescence, 72 h. The assay is described as above.

Regarding `Cc1cnc(NC(=O)c2cc(S(=O)(=O)N(C)C)ccc2N2CCCC2)s1`, in assay [1], the activity change, negative = cytotoxicity was -12% (inactive).
Same read-out and setting: the same measure for `CN(C)CCCN(Cc1cc2ccccc2[nH]c1=O)C(=O)Nc1ccccc1`: 2.4% (inactive).
Same read-out and setting: the value for `Cc1cnc(NC(=O)c2cc(S(=O)(=O)N(C)C)ccc2N(C)C)s1` was -6.64% (inactive).
In the case of `CN(C)S(=O)(=O)c1ccc(N2CCCC2)c(C(=O)Nc2cccc(F)c2)c1`, the activity change, negative = cytotoxicity in assay [1] was -8.14% (inactive).
On to `CCN(CC)c1ccc(S(=O)(=O)N(C)C)cc1C(=O)Nc1ncc(C)s1`, for which, in assay [2], the IC50 was > 30 µM (inactive).
Consider `CN(C)S(=O)(=O)c1ccc(N2CCCC2)c(C(=O)Nc2nccs2)c1`, for which, in assay [1], the activity change, negative = cytotoxicity was 1.36% (inactive).
Still for that read-out and setting: the same measure for `Cc1cnc(NC(=O)c2cc(S(=O)(=O)N(C)C)ccc2C2CCCC2)s1`: 0.274% (inactive); for `Cc1csc(NC(=O)c2cc(S(=O)(=O)N(C)C)ccc2N2CCCC2)n1`: -6.7% (inactive); for `COc1ccc2nc(NC(=O)c3cc(S(=O)(=O)N(C)C)ccc3N3CCCC3)sc2c1`: -4.45% (inactive).
Still for that read-out and setting: the same measure for `COc1ccc2sc(NC(=O)c3cc(S(=O)(=O)N(C)C)ccc3N3CCCC3)nc2c1`: 8.3% (inactive).
With `Cc1ccc(NC(=O)c2cc(S(=O)(=O)N(C)C)ccc2N2CCCC2)cc1`, the activity change, negative = cytotoxicity in assay [1] was -13.5% (inactive).
Same read-out and setting: the value for `CN(C)CCCN(Cc1cc2ccccc2[nH]c1=O)C(=O)NCc1ccccc1` was -4.79% (inactive).
Still for that read-out and setting: the same measure for `COc1cccc2sc(NC(=O)c3cc(S(=O)(=O)N(C)C)ccc3N3CCCC3)nc12`: -2.59% (inactive); for `Cc1cnc(NC(=O)c2cc(S(=O)(=O)N(C)C)ccc2N2CCC2)s1`: -8.88% (inactive); for `Cc1cnc(NC(=O)c2cc(S(=O)(=O)N3CCCC3)ccc2N2CCCC2)s1`: 0.402% (inactive).
Take `Cc1cnc(NC(=O)c2cc(S(=O)(=O)N3CCOCC3)ccc2N2CCCC2)s1`: the activity change, negative = cytotoxicity in assay [1] was -9.98% (inactive).
As for `Cc1cnc(NC(=O)c2cc(S(=O)(=O)N3CCCCC3)ccc2N2CCCC2)s1`, the activity change, negative = cytotoxicity in assay [1] was 9.07% (inactive).
Same read-out and setting: the same measure for `CN(C)S(=O)(=O)c1ccc(N2CCCC2)c(C(=O)Nc2ccccc2)c1`: -5.56% (inactive); for `CN(C)S(=O)(=O)c1ccc(N2CCCC2)c(C(=O)Nc2nc3ccccc3s2)c1`: -13.7% (inactive).

What is called IC50 is the concentration needed to halve the response being measured.
